{
  "source": "patent US10195209B2",
  "about": "“Anti-huLRRC15 antibody drug conjugates and methods for their use” (AbbVie Inc., priority 2015, dated 2019)",
  "key": {"[1]": {"test_system": "CTG-0241 (human osteosarcoma) patient-derived xenograft", "assay": "CTG-0241 patient-derived osteosarcoma xenograft model", "assay_type": "in vivo, nu/nu mice", "text": "(§1) Female nu/nu mice were implanted unilaterally on the left flank region with CTG-0241 tumor fragments harvested from host animals, each implanted from a specific passage lot. When tumors reached approximately 250-350 mm^3, animals were matched by tumor volume into treatment and control groups and dosing initiated (Day 0).\nIn FIG. 18B, female nu/nu mice were implanted unilaterally on the left flank region with CTG-0241 tumor fragments harvested from host animals, each implanted from a specific passage lot. When tumors reached approximately 250-350 mm^3, animals were matched by tumor volume into treatment and control groups and dosing initiated (Day 0). Dosing with isotype mAb or ADCs was performed IP at 6 mg/kg on a Q4Dx6 (one dose given every 4 days for a total of 6 doses), while cisplatin was dosed IP Q7Dx3 (once every 7 days for a total of 3 doses) at 7.5 mg/kg, doxorubicin was dosed intravenously (IV) once daily at 1 mg/kg for 5 days, gemcitabine was dosed IP Q3Dx4 (every 3 days for a total of 4 doses) at 80 mg/kg, and ifosfamide was dosed IP QDx3 (one dose given every day for a total of 3 doses) at 120 mg/kg."}, "[2]": {"test_system": "CTG-1095 (human osteosarcoma) patient-derived xenograft", "assay": "CTG-1095 patient-derived osteosarcoma xenograft model", "assay_type": "in vivo, NSG mice", "text": "as §1, with “NSG” for “nu/nu”, “CTG-1095” for “CTG-0241”\nIn FIG. 18C, female NSG mice were implanted unilaterally on the left flank region with CTG-1095 tumor fragments harvested from host animals, each implanted from a specific passage lot. When tumors reached approximately 150-300 mm^3, animals were matched by tumor volume into treatment and control groups and dosing initiated (Day 0). Dosing with isotype mAb or ADCs was performed IP at 12 mg/kg Q4Dx6 (one dose given every 4 days for a total of 6 doses), while cisplatin was dosed intraperitoneally Q7Dx2 (once every 7 days for a total of 2 doses) at 7.5 mg/kg.\nIn FIG. 18D, female NSG mice were implanted unilaterally on the left flank region with CTG-1095 tumor fragments harvested from host animals, each implanted from a specific passage lot. When tumors reached approximately 200 mm^3, animals were matched by tumor volume into treatment and control groups and dosing initiated (Day 0). Dosing with isotype mAb or ADCs was performed IP at 6 mg/kg on a Q4Dx6 (one dose given every 4 days for a total of 6 doses), while gemcitabine was dosed IP Q3Dx4 (every 3 days for a total of 4 doses) at 80 mg/kg."}, "[3]": {"test_system": "U118MG (glioblastoma) xenograft tumors", "assay": "U118MG glioblastoma xenograft model", "assay_type": "in vivo, SCID mice", "procedure": "For the experiments, ten million cells (U118MG) that were grown in vitro were inoculated subcutaneously per mouse into the right flank of female SCID mice. Tumors were size matched at˜100 mm^3, and dosed intraperitoneally (IP) Q6Dx2 (1 dose given every 6 days for a total of 2 doses) as shown in FIG. 14A. Measurements of the length (L) and width (W) of the tumors were taken via electronic caliper and the volume was calculated according to the following equation: V=L×W^2/2.\nFor the experiment, U118MG human glioblastoma cells were grown in vitro, and were inoculated subcutaneously (10 million cells per mouse) into the right flank of female SCID mice. Tumors were size matched at ˜150 mm^3, antibodies and immunoconjugates were administered IP Q4Dx6 (one dose give every 4 days for a total of 6 doses) at 10 or 6 mg/kg, respectively. At Day 165 post sizematch when tumors had regrown to ˜450 mm^3, animals were retreated with huM25-vcMMAE-DAR4 IP Q4Dx3 (one dose given every 4 days for a total of 3 doses) at 6 mg/kg.\nFour preparations of huM25-vcMMAE that differed in their relative DAR profile (E2, E2/E4, E4 or DAR4) were tested for efficacy in U118MG tumors. […]\nThe potency of anti-huLRRC15 ADCs as compared to current standards of care was assessed in xenograft model U118MG (glioblastoma), and patient-derived xenograft models CTG-0241 osteosarcoma) and CTG-1095 (osteosarcoma). […]"}, "[4]": {"test_system": "U118MG (glioblastoma) cells", "assay": "In vitro cell killing assay (Cell TiterGlo), U118MG", "assay_type": "cell-based, human", "settings": "4 days, percent cell viability by Cell TiterGlo", "procedure": "(§2) In the in vitro cell killing assays, cells are seeded at 500-3000 cells per well into 96-well plates with varying concentrations ([…]) of antibodies and ADCs. The cells are incubated for 4 days in culture and then the percent cell viability relative to untreated cells is determined using Cell TiterGlo™ which measures ATP content within the treated cells.\nPreparation of the huM25-PBD-DAR2 ADC was accomplished according to the procedure described in Example 8.\nFIG. 13E depicts the potent in vitro 4-day cell killing ability of anti-huLRRC15 ADC huM25-PBD-DAR2 as compared with the isotype control PBD DAR2 ADC in U118MG (glioblastoma) cells."}, "[5]": {"assay": "Rat tolerability experiment", "assay_type": "in vivo, Sprague Dawley wild type rats", "settings": "single IV dose at MMAE equivalent levels, FIG. 16A", "procedure": "The safety profiles of E2, E4 and E2/E4 preparations of huM25-vcMMAE ADCs were assessed in a rat tolerability experiment (FIGS. 16A, 16B). For the assay, Sprague Dawley wild type rats were dosed with a single IV dose at MMAE equivalent levels of each antibody drug conjugate. […] Double the protein antibody dose was delivered with equal amounts of MMAE, and improved survival for E2 was seen over E4. Fewer deaths occurred in the animals dosed with E2 than E4 ADCs, and the deaths that did occur happened later on Day 8. Broad drug distribution DAR4 has an MTD of 20 mg/kg."}, "[6]": {"test_system": "EBC-1 (squamous NSCLC) cells", "assay": "In vitro cell killing assay (Cell TiterGlo), huLRRC15-negative EBC-1", "assay_type": "cell-based, human", "settings": "huLRRC15-negative EBC-1, 4 days", "procedure": "as §2"}, "[7]": {"test_system": "RPMI-7951 (melanoma) cells", "assay": "In vitro cell killing assay (Cell TiterGlo), RPMI-7951", "assay_type": "cell-based, human", "settings": "RPMI-7951, 4 days", "procedure": "as §2"}, "[8]": {"test_system": "G292 clone A141B1 (osteosarcoma) cells", "assay": "In vitro cell killing assay (Cell TiterGlo), G292 clone A141B1", "assay_type": "cell-based, human", "settings": "G292 clone A141B1, 4 days", "procedure": "as §2"}, "[9]": {"test_system": "human BM-MSC (Lonza) mesenchymal stem cells", "assay": "In vitro cell killing, human BM-MSC treated with TGFβ", "assay_type": "cell-based", "settings": "10 ng/mL TGFβ, same doses"}, "[10]": {"settings": "gemcitabine alone, 80 mg/kg IP Q3Dx4, FIG. 18D"}, "[11]": {"settings": "ADC alone, 6 mg/kg IP Q4Dx6, FIG. 18D"}},
  "data": [
    {"molecule": "N.N.[Cl][Pt][Cl]", "note": "[cisplatin, reference compound]", "values": [
      {"measurement": "TGImax", "setting": "[1]; 7.5 mg/kg IP Q7Dx3, FIG. 18B", "result": 44, "unit": "%"},
      {"measurement": "TGImax", "setting": "[2]; 7.5 mg/kg IP Q7Dx2, FIG. 18C", "result": 70, "unit": "%"}
    ]},
    {"molecule": "COc1cccc2c1C(=O)c1c(O)c3c(c(O)c1C2=O)C[C@@](O)(C(=O)CO)C[C@@H]3O[C@H]1C[C@H](N)[C@H](O)[C@H](C)O1", "note": "[doxorubicin]", "values": [
      {"measurement": "TGImax", "setting": "[1]; 1 mg/kg IV once daily for 5 days, FIG. 18B", "result": 27, "unit": "%"}
    ]},
    {"molecule": "Nc1ccn([C@@H]2O[C@H](CO)[C@@H](O)C2(F)F)c(=O)n1", "note": "[gemcitabine, reference compound]", "values": [
      {"measurement": "TGImax", "setting": "[1]; 80 mg/kg IP Q3Dx4, FIG. 18B", "result": 64, "unit": "%"},
      {"measurement": "TGD", "setting": "[2]; [10]", "result": 241, "unit": "%"},
      {"measurement": "TGImax", "setting": "[2]; [10]", "result": 84, "unit": "%"}
    ]},
    {"molecule": "O=P1(NCCCl)OCCCN1CCCl", "note": "(stereo not shown) [ifosfamide]", "values": [
      {"measurement": "TGImax", "setting": "[1]; 120 mg/kg IP QDx3, FIG. 18B", "result": 10, "unit": "%"}
    ]},
    {"molecule": "Cn1nnc2c(C(N)=O)ncn2c1=O", "note": "[temozolomide, reference compound]", "values": [
      {"measurement": "TGImax", "setting": "[3]; 20 mg/kg orally daily for first 5 days of a 7-day cycle, two cycles, FIG. 18A", "result": 67, "unit": "%"}
    ]},
    {"molecule": "huM25-vcMMAE-E2: huM25-vcMMAE ADC preparation enriched in DAR2 by hydrophobic interaction chromatography", "values": [
      {"measurement": "in vitro cell killing compared with isotype ADC", "setting": "[4]", "result": "superior to that seen with non-targeting isotype-vcMMAE ADCs"},
      {"measurement": "death, percentage of animals", "setting": "[5]", "result": 25, "unit": "%"},
      {"measurement": "maximum tumor growth inhibition (TGImax)", "setting": "[3]; MMAE-equivalent doses IP every seven days for three doses, FIG. 17", "result": "≥ 84", "unit": "%"},
      {"measurement": "TGImax", "setting": "[1]; 6 mg/kg IP Q4Dx6, FIG. 14B/18B", "result": 91, "unit": "%"},
      {"measurement": "in vitro cell killing", "setting": "[6]", "result": "minimal cancer cell killing"},
      {"measurement": "in vitro cell killing compared with isotype ADC", "setting": "[7]", "result": "superior to that seen with non-targeting isotype-vcMMAE ADCs"},
      {"measurement": "TGImax", "setting": "[2]; 12 mg/kg IP Q4Dx6, FIG. 14C/18C", "result": 87, "unit": "%"},
      {"measurement": "TGD", "setting": "[2]; [11]", "result": 193, "unit": "%"},
      {"measurement": "TGImax", "setting": "[2]; [11]", "result": 75, "unit": "%"},
      {"measurement": "in vitro cell killing compared with isotype ADC", "setting": "[8]", "result": "superior to that seen with non-targeting isotype-vcMMAE ADCs"}
    ]},
    {"molecule": "huAD208.4.1-PBD-DAR2: anti-LRRC15 PBD ADC of huAD208.4.1, cross-reactive to human and mouse LRRC15 (conjugate) VH: EVQLVQSGAEVKKPGSSVKVSCKASGFTFTDYYIHWVKQAPGQGLEWIGLVYPYIGGTNYNQKFKGKATLTVDTSTTTAYMEMSSLRSEDTAVYYCARGDNKYDAMDYWGQGTTVTVSS VL: DIVLTQSPDSLAVSLGERATINCRASQSVSTSSYSYMHWYQQKPGQPPKLLIKYASSLESGVPDRFSGSGSGTDFTLTISSLQAEDVAVYYCEQSWEIRTFGGGTKVEIK", "values": [
      {"measurement": "in vitro cell killing effect compared with isotype-PBD-DAR2", "setting": "[9]", "result": "higher cell killing effect than isotype-PBD-DAR2"}
    ]}
  ]
}
